Measurements published in ChEMBL document CHEMBL4049391, “Vicinal diaryl azole-based urea derivatives as potential cholesterol lowering agents acting through inhibition of SOAT enzymes” (Eur J Med Chem, 2017).

Legend:
Rattus norvegicus [1] = organism: Rattus norvegicus; test: Inhibition of rat microsomal SOAT assessed as reduction in cholesteryl oleate formation from oleoyl co-enzyme A at 10 uM pretreated for 15 mins followed by oleoyl co-enzyme A addition measured after 10 mins by HPTLC method relative to control
[2] = Inhibition of rat microsomal SOAT assessed as reduction in cholesteryl oleate formation from oleoyl co-enzyme A pretreated for 15 mins followed by oleoyl co-enzyme A addition after 10 mins by HPTLC method
Rattus norvegicus [3] = test: Anti-hypercholesterolemic activity in poloxamer-407-induced Wistar rat lipoprotein lipase inhibition model assessed as fold change in triglyceride level at 20 mg/kg administered as single dose via oral gavage pretreated for 4 hrs followed by poloxamer-407 induction measured over 24 hrs (reference value: 80); type: functional
[4] = target: T1, Sterol O-acyltransferase 2 (Homo sapiens, UniProt O75908); test: Inhibition of human SOAT2
T1 sequence (O75908 whole entry): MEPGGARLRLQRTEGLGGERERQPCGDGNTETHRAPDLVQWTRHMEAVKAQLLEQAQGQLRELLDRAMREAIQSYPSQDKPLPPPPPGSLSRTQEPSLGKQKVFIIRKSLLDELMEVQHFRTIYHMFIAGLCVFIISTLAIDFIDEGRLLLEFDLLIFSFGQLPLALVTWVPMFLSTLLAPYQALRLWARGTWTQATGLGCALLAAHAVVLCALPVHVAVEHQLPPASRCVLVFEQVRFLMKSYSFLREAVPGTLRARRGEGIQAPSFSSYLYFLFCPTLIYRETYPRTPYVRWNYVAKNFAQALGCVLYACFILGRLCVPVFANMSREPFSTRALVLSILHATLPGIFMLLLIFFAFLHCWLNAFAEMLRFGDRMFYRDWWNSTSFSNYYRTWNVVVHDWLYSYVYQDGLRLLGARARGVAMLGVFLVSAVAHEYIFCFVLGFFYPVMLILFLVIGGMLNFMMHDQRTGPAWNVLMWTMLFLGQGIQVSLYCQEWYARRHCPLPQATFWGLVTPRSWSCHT

Row | SMILES | inhibition (Rattus norvegicus [1]) | IC50 [2] | pIC50 [2] | fold change (FC) (Rattus norvegicus [3]) | IC50 [4]
1 | CCCCCCCNC(=O)Nc1nc(-c2ccc(OC)cc2)c(-c2ccc(Cl)cc2)s1 | 1.73% | 21.3 µM | 4.672 | – | –
2 | CCCCNC(=O)Nc1ccc(-c2sc(C)nc2-c2ccc(F)cc2)cc1 | 59.9% | 9.58 µM | 5.0186 | – | –
3 | CC(C)c1cc(C(C)C)c(CC(=O)NS(=O)(=O)Oc2c(C(C)C)cccc2C(C)C)c(C(C)C)c1 [AVASIMIBE] | – | – | – | 20 | –
4 | CCCCCCCNC(=O)Nc1ccc(-c2sc(C)nc2-c2ccc(F)cc2)cc1 | 63% | 5.69 µM | 5.244 | 50 - 90 | –
5 | CCCCCCCCCCCCNC(=O)Nc1ccc(-c2sc(C)nc2-c2ccc(C)cc2)cc1 | 46.2% | 12.2 µM | 4.914 | – | –
6 | O=C(NCCCCCCSc1nc(-c2ccccc2)c(-c2ccccc2)[nH]1)Nc1ccc(F)cc1F | – | – | – | – | 1.74 µM
7 | Cc1nc(-c2ccc(Cl)cc2)c(-c2ccc(NC(=O)NCCN3CCOCC3)cc2)s1 | 12.3% | 118 µM | 3.927 | – | –
8 | CCCCCCCCCCCCNC(=O)Nc1ccc(-c2nonc2-c2ccc(F)cc2)cc1 | 50.1% | 12.4 µM | 4.905 | – | –
9 | CCCCNC(=O)Nc1ccc(-c2sc(C)nc2-c2ccc(Cl)cc2)cc1 | 60.7% | 6.27 µM | 5.202 | 50 - 90 | –
10 | CCc1cccc(CC)c1NC(=O)Nc1ccc(-c2sc(C)nc2-c2ccc(Cl)cc2)cc1 | 63.3% | 4.04 µM | 5.3936 | 50 - 90 | –
11 | CCCCNC(=O)Nc1nc(-c2ccc(OC)cc2)c(-c2ccc(Cl)cc2)s1 | 27.6% | 62.9 µM | 4.2014 | – | –
12 | CCCCNC(=O)Nc1nc(-c2ccc(OC)cc2)c(-c2ccc(NC(C)=O)cc2)s1 | 39.5% | 41.3 µM | 4.384 | – | –
13 | O=C(Nc1ccccc1)Nc1nc(-c2ccccc2)c(-c2ccccc2)s1 | 10.6% | 17.7 µM | 4.7512 | – | –
14 | CCCCCCCNC(=O)Nc1ccc(-c2sc(C)nc2-c2ccc(Cl)cc2)cc1 | 52.2% | 7.85 µM | 5.105 | 50 - 90 | –
15 | CCc1cccc(CC)c1NC(=O)Nc1ccc(-c2sc(C)nc2-c2ccc(C)cc2)cc1 | 30.9% | 30.9 µM | 4.412 | – | –
16 | Cc1nc(-c2ccc(F)cc2)c(-c2ccc(NC(=O)Nc3c(C(C)C)cccc3C(C)C)cc2)s1 | 42.1% | 11.8 µM | 4.926 | – | –

Row | SMILES | inhibition (Rattus norvegicus [1]) | IC50 [2] | pIC50 [2] | fold change (FC) (Rattus norvegicus [3]) | IC50 [4]
17 | COc1ccc(-c2nc(NC(=O)Nc3ccc(F)cc3F)sc2-c2ccc(NS(C)(=O)=O)cc2)cc1 | 19.6% | 19 µM | 4.721 | – | –
18 | CCCCCCCCCCCCNC(=O)Nc1ccc(-c2sc(C)nc2-c2ccc(F)cc2)cc1 | 34.5% | 48.6 µM | 4.313 | – | –
19 | CCc1cccc(CC)c1NC(=O)Nc1ccc(-c2sc(C)nc2-c2ccc(F)cc2)cc1 | 46.7% | 8.4 µM | 5.075 | 50 - 90 | –
20 | CCc1cccc(CC)c1NC(=O)Nc1ccc(-c2sc(C)nc2-c2ccc(OC)cc2)cc1 | 31.6% | 43.6 µM | 4.3606 | – | –
21 | COc1cc(NC(=O)Nc2ccc(-c3sc(C)nc3-c3ccc(F)cc3)cc2)cc(OC)c1OC | 42% | 12.6 µM | 4.898 | – | –
22 | COc1ccc(-c2nc(C)sc2-c2ccc(NC(=O)Nc3ccccc3)cc2)cc1 | 11.4% | 94.8 µM | 4.0233 | – | –
23 | CCCCCCCCCCCCNC(=O)Nc1ccc(-c2nonc2-c2ccc(C)cc2)cc1 | 9.15% | 123 µM | 3.909 | – | –
24 | CCCCNC(=O)Nc1ccc(-c2nonc2-c2ccc(F)cc2)cc1 | 54.5% | 12.3 µM | 4.908 | – | –
25 | COc1ccc(-c2nc(NC(=O)Nc3ccc(F)cc3F)sc2-c2ccc(NC(C)C)cc2)cc1 | 51.7% | 12.1 µM | 4.916 | – | –
26 | CCc1cccc(CC)c1NC(=O)Nc1nc(-c2ccc(C)cc2)c(-c2ccc(N)cc2)s1 | – | 103 µM | 3.9863 | – | –
27 | CCc1cccc(CC)c1NC(=O)Nc1ccc(-c2nonc2-c2ccc(F)cc2)cc1 | 44.9% | 9.73 µM | 5.011 | – | –
28 | Cc1nc(-c2ccc(F)cc2)c(-c2ccc(NC(=O)Nc3ccc(F)cc3F)cc2)s1 | 4.97% | 196 µM | 3.7081 | – | –
29 | Cc1ccc(-c2nonc2-c2ccc(NC(=O)Nc3ccc(F)cc3F)cc2)cc1 | 13.5% | 20.1 µM | 4.697 | – | –
30 | COc1ccc(-c2nc(NC(=O)Nc3ccccc3)sc2-c2ccc(Cl)cc2)cc1 | 56.9% | 10.7 µM | 4.972 | – | –
31 | CCCCNC(=O)Nc1nc(-c2ccc(C)cc2)c(-c2ccc(Cl)cc2)s1 | 36.4% | 94 µM | 4.0271 | – | –
32 | COc1ccc(-c2nc(NC(=O)Nc3ccc(F)cc3F)sc2-c2ccc(NC(C)=O)cc2)cc1 | 39% | 31.9 µM | 4.496 | – | –
